Values of other authors in patent publication US20130129827A1, “EXTENDED RELEASE PHARMACEUTICAL COMPOSITIONS OF PALIPERIDONE AND PROCESSES OF PREPARATION THEREOF” (RANBAXY LABORATORIES LIMITED, priority 2009, published 2013).

Conditions: background statement, species not given

Cc1nc2n(c(=O)c1CCN1CCC(c3noc4cc(F)ccc34)CC1)CCCC2O (racemic) [Paliperidone, (±)-3-[2-[4-(6-fluoro-1,2-benzisoxazol-3-yl)-1-piperidinyl]ethyl]-6,7,8,9-tetrahydro-9-hydroxy-2-methyl-4H-pyrido[1,2-a]pyrimidin-4-one]
half-life: about a day
